From patent publication US20250136555A1 (HARBIN MEDISAN PHARMACEUTICAL CO., LTD., priority 2022, published 2025) come the findings set out here.

Common to all, as to type: cell-based
One assay addresses T1, PPARα (Homo sapiens, UniProt Q07869).
T1 construct: expressed in transfected cells; host or cells: COS-7
T1 sequence (Q07869 239-466 limits assumed): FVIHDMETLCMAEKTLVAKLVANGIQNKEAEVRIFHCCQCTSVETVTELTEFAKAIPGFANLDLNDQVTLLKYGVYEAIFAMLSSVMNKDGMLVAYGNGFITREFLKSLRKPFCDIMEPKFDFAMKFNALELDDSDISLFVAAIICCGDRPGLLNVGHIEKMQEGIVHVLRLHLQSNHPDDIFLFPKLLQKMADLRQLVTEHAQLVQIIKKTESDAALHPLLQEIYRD
Kind of assay: GAL4 hybrid reporter gene method, PPARα agonistic activity. The conditions noted are these: Cos-7 cells, Gal4-PPARα (LBD); GW7647 10 nM = 100%; 16 h. (In general: A reporter such as luciferase makes a cellular process visible.)

A further assay concerns the target T2, PPARδ (Homo sapiens, UniProt Q03181).
T2 construct: expressed in transfected cells; host or cells: COS-7
T2 sequence (Q03181 211-439 limits assumed): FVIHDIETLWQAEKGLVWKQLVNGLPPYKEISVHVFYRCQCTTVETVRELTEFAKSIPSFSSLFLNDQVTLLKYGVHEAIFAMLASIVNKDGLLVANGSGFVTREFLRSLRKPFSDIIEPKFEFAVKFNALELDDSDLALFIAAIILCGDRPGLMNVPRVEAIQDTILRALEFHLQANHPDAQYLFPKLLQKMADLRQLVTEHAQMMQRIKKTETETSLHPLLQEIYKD
The experiment in a line: GAL4 hybrid reporter gene method, PPARδ agonistic activity.

The target of the next assay is T3, PPARγ (Homo sapiens, UniProt P37231).
T3 construct: expressed in transfected cells; host or cells: COS-7
T3 sequence (P37231 238-503 limits assumed): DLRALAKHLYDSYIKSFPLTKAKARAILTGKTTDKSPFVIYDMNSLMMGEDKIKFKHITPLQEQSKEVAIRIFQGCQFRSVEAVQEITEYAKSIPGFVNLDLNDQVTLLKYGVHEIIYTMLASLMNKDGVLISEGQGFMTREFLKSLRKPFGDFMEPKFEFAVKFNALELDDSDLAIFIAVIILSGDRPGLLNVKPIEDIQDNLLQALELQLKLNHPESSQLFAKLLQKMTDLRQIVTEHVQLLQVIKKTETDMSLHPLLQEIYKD
The experiment in a line: GAL4 hybrid reporter gene method, PPARγ agonistic activity.

[1] abbreviates: Cos-7 cells, Gal4-PPARδ (LBD), GW501516 10 nM = 100%, 16 h.
[2] abbreviates: Cos-7 cells, Gal4-PPARγ (LBD), Rosiglitazone 1 μM = 100%, 16 h.

Structures are written as SMILES. Like-named read-outs stand apart in the source and are kept apart here. A value given as a limit tells only on which side of the number the result lay.

Description for PPARα: (§1) Cos-7 cells (African green monkey kidney fibroblasts, commonly used tool cells) were cultured in a 10-cm cell culture dish with a DMEM complete medium containing 10% fetal bovine serum. When growing at a density of about 70%, the cells were ready for transfection. […] The working solution described above was then combined with 8 mL of the DMEM complete medium, and the mixture was added to the cell culture dish for cell transfection. After 4 h of transfection, the cells were digested, resuspended, and seeded into a 96-well plate at 25,000 cells/well. […] 10 μL of a reporter gene detection solution (purchased from Shanghai Beyotime Biological Tech. Co., Ltd.) was added. After the resulting solution was mixed and reacted, biological fluorescence was detected by using a multifunctional microplate reader, and corresponding half maximal effective concentration (EC50) values were calculated according to the detection values. […] Transfection working solutions for different nuclear receptors were prepared and added into COS-7 cells. The preparation method for the transfection working solution was as follows: the constructed pBIND-Gal4-PPARα (LBD) (or pBIND-Gal4-PPARδ (LBD) plasmid or pBIND-Gal4-PPARγ (LBD) plasmid or pBIND-Gal4-RARα (LBD) plasmid or pBIND-Gal4-RARγ (LBD) plasmid or pBIND-Gal4-RARβ (LBD) plasmid or pBIND-Gal4-RORα (LBD) plasmid or pBIND-Gal4-RORγ (LBD) plasmid or pBIND-Gal4-RORβ (LBD) plasmid or pBIND-Gal4-FXR (LBD) plasmid or pBIND-Gal4-RXRα.
Description for PPARγ: as §1
Description for PPARδ: as §1

On to `COc1ccc(N2CC(=O)N(Cc3cc(C)c(OC(C)(C)C(=O)O)c(C)c3)C2=O)cc1` [Compound 39, 2-(4-((3-(4-Methoxyphenyl)-2,5-dioxoimidazolin-1-yl)methyl)-2,6-dimethylphenoxy)-2-methylpropionic Acid], for which the EC50 (in general, the concentration that produces a half-maximal response) on PPARα came to 18.8 nM; at PPARδ (setting [1]), 36.1 nM; on PPARγ (setting [2]) it was 3370 nM.

For the compound `Cc1cc(CN2C(=O)CN(c3ccc(-c4ccccc4)cc3)C2=O)cc(C)c1OC(C)(C)C(=O)O` [Compound 41], the concentration giving a half-maximal response (EC50) came out at 0.9 nM at PPARα, 6.2 nM at PPARδ (setting [1]) and 630 nM at PPARγ (setting [2]). Also, on PPARα, the “PPARα EC50 (nM)” value is “low nanomolar levels”. Moreover, at PPARδ (setting [1]), the “PPARδ EC50 (nM)” value was “low nanomolar levels”.

As to `Cc1cc(CN2C(=O)CN(c3cccc(C(F)(F)F)c3)C2=O)cc(C)c1OC(C)(C)C(=O)O` [Compound 45, 2-(4-((2,5-Dioxo-3-(3-(trifluoromethyl)phenyl)imidazolin-1-yl)methyl)-2,6-dimethylphenoxy)-2-methylpropionic Acid], the concentration giving a half-maximal response (EC50) on PPARα was 3.8 nM; on PPARδ (setting [1]) it was 5.9 nM; at PPARγ (setting [2]), 996 nM. Also, the “PPARα EC50 (nM)” value at PPARα is recorded as “low nanomolar levels”. At PPARδ (setting [1]), the “PPARδ EC50 (nM)” value is listed as “low nanomolar levels”.

On to `CC(C)(Oc1c(F)cc(CN2C(=O)CN(c3ccc(C(F)(F)F)cc3)C2=O)cc1Cl)C(=O)O` [Compound 47, 2-(2-Chloro-4-((2,5-dioxo-3-(4-(trifluoromethyl)phenyl)imidazolin-1-yl)methyl)-6-fluorophenoxy)-2-methylpropionic Acid], for which the half-maximal effective concentration (EC50) is 9.9 nM at PPARα, 19 nM at PPARδ and above 5000 nM on PPARγ.

Consider `CC(C)(Oc1ccc(CN2C(=O)CN(c3ccc(C(F)(F)F)cc3)C2=O)cc1Cl)C(=O)O` [Compound 51, 2-(4-((2,5-Dioxo-3-(4-(trifluoromethyl)phenyl)imidazolin-1-yl)methyl)-2-chlorophenoxy)-2-methylpropionic Acid], for which the figures for the EC50 on PPARα, on PPARδ and on PPARγ were 89.9 nM, 40.1 nM and above 5000 nM, respectively.

For `Cc1cc(CN2C(=O)CN(c3ccc(C(F)(F)F)cc3)C2=O)cc(C)c1OCC(=O)O` [Compound 53, 2-(4-((2,5-Dioxo-3-(4-(trifluoromethyl)phenyl)imidazolin-1-yl)methyl)-2,6-dimethylphenoxy)acetic Acid], the 50% effective concentration (EC50) at PPARα was 325 nM; on PPARδ (setting [1]) it was 175 nM; on PPARγ it was above 5000 nM.

In the case of `CC(C)(Oc1ccc(CN2C(=O)CN(c3ccc(C(F)(F)F)cc3)C2=O)cc1OC(F)(F)F)C(=O)O` [Compound 55, 2-(4-((2,5-Dioxo-3-(4-(trifluoromethyl)phenyl)imidazolin-1-yl)methyl)-2-(trifluoromethoxy)phenoxy)-2-methylpropionic Acid], the EC50 on PPARα came to 82.1 nM; on PPARδ, 24 nM; at PPARγ it was 2960 nM.

For the compound `Cc1cc(CN2C(=O)CN(c3ccc(C(F)(F)F)cc3)C2=O)ccc1OC(C)(C)C(=O)O` [Compound 57, 2-(4-((2,5-Dioxo-3-(4-(trifluoromethyl)phenyl)imidazolin-1-yl)methyl)-2-(methyl)phenoxy)-2-methylpropionic Acid], the half-maximal effective concentration (EC50) on PPARα turned out to be 46.7 nM; at PPARδ (setting [1]), 19.2 nM; at PPARγ (setting [2]), 2720 nM.

In the case of `CC(C)(Oc1ccc(CN2C(=O)CN(c3ccc(C(F)(F)F)cc3)C2=O)cc1)C(=O)O` [Compound 59, 2-(4-((2,5-Dioxo-3-(4-(trifluoromethyl)phenyl)imidazolin-1-yl)methyl)phenoxy)-2-methylpropionic Acid], the concentration giving a half-maximal response (EC50) on PPARα is 277 nM; on PPARδ (setting [1]) it was 359 nM; at PPARγ it was above 5000 nM.

For the compound `CCC(Oc1c(C)cc(CN2C(=O)CN(c3ccc(C(F)(F)F)cc3)C2=O)cc1C)C(=O)O` (stereo not drawn) [Compound 67, 2-(4-((2,5-Dioxo-3-(4-(trifluoromethyl)phenyl)imidazolin-1-yl)methyl)-2,6-dimethylphenoxy)butyric Acid], the values for the concentration for a half-maximal effect (EC50) on PPARα, on PPARδ and on PPARγ were 14.1 nM, 3.4 nM and 1920 nM, respectively.

As for `Cc1cc(CN2C(=O)CN(c3ccc(S(C)(=O)=O)cc3)C2=O)cc(C)c1OC(C)(C)C(=O)O` [Compound 71, 2-(2,6-Dimethyl-4-((3-(4-(methylsulfonyl)phenyl)-2,5-dioxoimidazolin-1-yl)methyl)phenoxy)-2-methylpropionic Acid], the concentration for a half-maximal effect (EC50) on PPARα is 1090 nM; at PPARδ, above 5000 nM; on PPARγ, above 5000 nM.

As to `COc1cc(CN2C(=O)CN(c3ccc(C(F)(F)F)cc3)C2=O)cc(Cl)c1OC(C)(C)C(=O)O` [Compound 73, 2-(2-Chloro-4-((2,5-dioxo-3-(4-(trifluoromethyl)phenyl)imidazolin-1-yl)methyl)-6-methoxyphenoxy)-2-methylpropionic Acid], the EC50 at PPARα was found to be 2.4 nM; on PPARδ, 31 nM; on PPARγ, 2120 nM.

As to `CC(C)(Oc1ccc(CN2C(=O)CN(c3ccc(C(F)(F)F)cc3)C2=O)cc1Br)C(=O)O` [Compound 77, 2-(2-Bromo-4-((2,5-dioxo-3-(4-trifluoromethyl)phenyl)imidazolidin-1-yl)methylphenoxy)-2-methylpropionic Acid], the values for the EC50 on PPARα, at PPARδ and at PPARγ were 74.1 nM, 25.3 nM and 3190 nM, respectively.

With `Cc1cc(CN2CC(=O)N(c3ccc(C(F)(F)F)cc3)C2=O)cc(C)c1OC(C)(C)C(=O)O` [Compound 81, 2-(4-((2,4-Dioxo-3-(4-(trifluoromethyl)phenyl)imidazolidin-1-yl)methyl)-2,6-dimethylphenoxy)-2-methylpropionic Acid], the results for the EC50 on PPARα, on PPARδ (setting [1]) and at PPARγ were 165 nM, 82.1 nM and above 5000 nM, respectively.

Regarding `Cc1cc(CN2C(=O)N(c3ccc(C(F)(F)F)cc3)C(=O)C2(C)C)cc(C)c1OC(C)(C)C(=O)O` [Compound 83], the EC50 stood at 79.3 nM at PPARα, 6.5 nM at PPARδ (setting [1]) and 1680 nM on PPARγ (setting [2]).

For `Cc1cc(CCN2C(=O)CN(c3ccc(C(F)(F)F)cc3)C2=O)cc(C)c1OC(C)(C)C(=O)O` [Compound 85, 2-(4-(2-(2,5-Dioxo-3-(4-(trifluoromethyl)phenyl)imidazolidin-1-yl)ethyl)-2,6-dimethylphenoxy)-2-methylpropionic Acid], the EC50 on PPARα was 17.9 nM; at PPARδ (setting [1]), 4.4 nM; at PPARγ, 2720 nM.

With `Cc1cc(CCN2CC(=O)N(c3ccc(C(F)(F)F)cc3)C2=O)cc(C)c1OC(C)(C)C(=O)O` [Compound 87, 2-(4-(2-(2,4-Dioxo-3-(4-(trifluoromethyl)phenyl)imidazolin-1-yl)ethyl)-2,6-dimethylphenoxy)-2-methylpropionic Acid], the EC50 at PPARα was 353 nM; on PPARδ it was 352 nM; at PPARγ it was 3400 nM.

For the compound `Cc1cc(CCCN2C(=O)CN(c3ccc(C(F)(F)F)cc3)C2=O)cc(C)c1OC(C)(C)C(=O)O` [Compound 89, 2-(4-(3-(2,5-Dioxo-3-(4-(trifluoromethyl)phenyl)imidazolidin-1-yl)propyl)-2,6-dimethylphenoxy)-2-methylpropionic Acid], the results for the EC50 on PPARα, on PPARδ (setting [1]) and on PPARγ (setting [2]) were 67 nM, 20.3 nM and 628 nM, respectively.

On to `Cc1cc(CCCN2CC(=O)N(c3ccc(C(F)(F)F)cc3)C2=O)cc(C)c1OC(C)(C)C(=O)O` [Compound 91, 2-(4-(3-(2,4-Dioxo-3-(4-(trifluoromethyl)phenyl)imidazolidin-1-yl)propyl)-2,6-dimethylphenoxy)-2-methylpropionic Acid], for which the values for the EC50 on PPARα, at PPARδ and at PPARγ were 38 nM, 632 nM and 2690 nM, respectively.

`CCOc1ccc(N2CC(=O)N(Cc3cc(C)c(OC(C)(C)C(=O)O)c(C)c3)C2=O)cc1` [Compound 95]: the EC50 on PPARα was 10.9 nM; at PPARδ it was 66.9 nM; on PPARγ it was 1330 nM.

On to `COc1cc(CN2C(=O)CN(c3ccc(C(F)(F)F)cc3)C2=O)ccc1OC(C)(C)C(=O)O` [Compound 97], for which the EC50 at PPARα is 209 nM; at PPARδ it was 1400 nM; at PPARγ, 2890 nM.

As for `Cc1cc(CN2C(=O)CN(c3ccc(C=O)cc3)C2=O)cc(C)c1OC(C)(C)C(=O)O` [Compound 99], the results for the EC50 at PPARα, on PPARδ and on PPARγ were 402 nM, above 5000 nM and above 5000 nM, respectively.

Regarding `Cc1cc(CN2C(=O)CN(c3ccc(C4CC4)cc3)C2=O)cc(C)c1OC(C)(C)C(=O)O` [Compound 101], the concentration for a half-maximal effect (EC50) at PPARα was 1 nM; at PPARδ, 10.2 nM; at PPARγ, 313 nM. Besides, at PPARα, the “PPARα EC50 (nM)” value was “low nanomolar levels”. Moreover, on PPARδ (setting [1]), the “PPARδ EC50 (nM)” value is given as “low nanomolar levels”.

In the case of `Cc1cc(CN2C(=O)CN(c3cccc(F)c3)C2=O)cc(C)c1OC(C)(C)C(=O)O` [Compound 103], the values for the half-maximal effective concentration (EC50) at PPARα, at PPARδ and on PPARγ were 102 nM, 97.6 nM and 474 nM, respectively.
